In patent US7608750B2, “Nonhuman model animal unresponsive to immunopotentiating synthetic compound” (Japan Science and Technology Agency, priority 2001, dated 2009):

Key:
human papilloma virus = conditions: actual treatment; cited from earlier work
various types of cells = conditions: cited from earlier work
[1] = test system: peritoneal macrophages from MyD88 knockout mice; experiment: Cytokine production by peritoneal macrophages (ELISA), MyD88 knockout; assay type: cell-based, mouse; conditions: 5×10^4 cells, presence or absence of 30 U/ml IFN-γ
Protocol: (§1) 2 ml of 4% thioglycollic acid medium (DIFCO) were injected into the intraperitoneals of the wild-type mice, TLR7 knockout mice (TLR7KO), MyD88 knockout mice (MyD88KO) and TLR9 knockout mice (TLR9KO), respectively, three days later, peritoneal exudate cells were isolated from intraperitoneal of each mouse, these cells were cultured in PRMI 1640 medium (GIBCO) added with 10% fatal bovine serum (GIBCO) at 37° C. for two hours, nonadherent cells were […] by washing with Hank's buffered salt solution (HBBS; GIBCO) at iced temperature, and the adherent cells were used as peritoneal macrophages in following experiment. Total RNA (10 μg) obtained from macrophages derived from the wild-type mice (+/Y) and TLR7 knockout mouse (TLR7KO) was electrophoresed, transferred onto a nylon membrane, and hybridized with a part of TLR7 DNA, and this membrane was rehybridized with β-actin probe. It was examined by the Northern blotting. From the results shown in FIG. 3, the expression of TLR7mRNA could not be found in TLR7 knockout mice.
(§2) In addition, the measurement of cytokine generated from peritoneal macrophages was executed as follows; […] peritoneal macrophages of 2×10^5 well or 5×10^4 well were cultured in 96-well plate respectively, and after stimulated with the above-mentioned reagents for 24 h, concentration of TNF-α, IL-12p40, IL-6 and/or IFN-α were measured by ELISA according to the manual.
(§3) Before examining the reactivity of TLR7 knockout mice to imiquimod and R-848 which are imidazoquinoline group compound, firstly imiquimod or R-848 were administered to BALB/c mice (wild-type) orally at the predetermined concentration, respectively, the concentration of IFN-α, TNF-α and IL-12 in serum were measured after two hours. […] The data is shown as a mean value+/−S.D. (N=3). Similarly, the ability of these compounds to activate immune cells via TLR was examined using imiquimod or R-848 respectively. The peritoneal macrophages (5×10^4 cells) from wild-type mice and MyD88 knockout mice prepared in example 2, were stimulated by imiquimod or R-848, in the presence or absence of 30 U/ml of IFN-γ, and the concentration of TNF-α and IL-12 produced by peritoneal macrophages were measured by ELISA. […] The data is shown as a mean value+/−S.D. (N=3).

animal model = conditions: cited from earlier work
BALB/c mice (wild-type) = experiment: Serum cytokines after oral administration of imidazoquinolines; assay type: in vivo, mouse; conditions: after two hours, N=3
Protocol: as §3

cytomegalovirus = conditions: cited from earlier work
[2] = test system: peritoneal macrophages from wild-type mice; experiment: Cytokine production by peritoneal macrophages (ELISA), wild-type; assay type: cell-based, mouse; conditions: 5×10^4 cells, presence or absence of 30 U/ml IFN-γ
Protocol: as §1, §2, §3

[3] = test system: type 2 herpes simplex virus; conditions: cited from earlier work
NF-κB and MAP kinase = conditions: cited from earlier work
[4] = test system: macrophages derived from wild-type mice; experiment: Intracellular signalling (NF-κB EMSA, JNK and IRAK in vitro kinase assay) in macrophages, wild-type; assay type: cell-based, mouse; conditions: 100 nM R-848 or 1.0 μM CpGDNA 1668
Protocol: (§4) Next, the activation of intracellular signaling cascade to an antiviral immune-modulator was examined. Peritoneal macrophages (2×10^6 cells) from TLR7 knockout mice (TLR7KO) and wild-type mice respectively stimulated with thioglycollic acid, were stimulated with 100 nM of R-848 or 1.0 μM of CpGDNA 1668 (CpG) for a certain period of time, nucleoprotein was extracted, the extract obtained with the specific probe including NF-κB associated-site was incubated, electrophoresed, visualized by autoradiography, and NF-κB activation was examined as DNA-associated protein by electrophoretic mobility shift assay (EMSA). In FIG. 12, an arrow indicates induced NF-κB complexes, and an arrow head indicates a free probe.
(§5) The functional role of TLR7 in transactivation of NF-κB reporter gene induced by R-848 was examined. HEK293 cells were transiently cotransfected with TLR7 expression plasmids derived from human, and luciferase activity was measured before and after R-848 stimulation. The peritoneal macrophages derived from TLR7 knockout mice (TLR7KO) and wild-type mice stimulated with thioglycollic acid were stimulated with 100 nm of R-848 or 1.0 μM of phosphothioate modified CpGDNA 1668 (CpG), all cell lysate were prepared, immunoprecipated with anti-JNK antibody, and JNK activity was examined by In Vitro Kinase Assay using GST-c-Jun fusion protein as a substrate. The same lysate was blotted with anti-JNK antibody. Moreover, the lysate was immunoprecipated with anti-IRAK, and kinase activity of IRAK was examined by In Vitro Kinase Assay. The same lysate was blotted with anti-IRAK antibody. […] It is important to activate TLR7-MyD88-dependent signal pathway for the effect of imidazoquinoline in vivo.

[5] = test system: BMDC derived from wild-type mice; experiment: Surface CD40, CD80, CD86 expression on bone marrow dendritic cells (flow cytometry), wild-type; assay type: cell-based, mouse; conditions: stimulated 24 h
Protocol: (§6) The reactivity to R-848 in dendritic cells derived from bone marrow (BMDC) derived from TLR7 knockout mice (TLR7KO) and the wild-type mice was examined. The bone marrow cells obtained from TLR7 knockout mice and wild-type mice were cultured for six days in RPMI-1640 medium supplemented with 10% fatal bovine serum and 10 ng/ml of GM-CSF (mouse granulocyte/macrophage colony stimulating factor). The obtained mouse undifferentiated dendritic cells were stimulated with R-848 or CpGDNA for 24 h, the cells were stained with biotinylated antibody to CD40, CD80 and CD86, and phycoerythrin (PE)-associated streptavidin was detected, which was analyzed by automated-cell analysing system (FACSCalibur). The results of examination of the expression of the molecules of CD40, CD80 and CD86 onto the surface of cells by flow cytometry are shown in FIG. 11. Similar to the case with CpGDNA, when BMDC derived from wild-type mice was stimulated with R-848, upregulation of CD40, CD80 and CD86 expression was induced. On the contrary, when BMDC derived from TLR7 knockout mice (TLR7KO) was stimulated with R-848, the expression of these molecules on cell surface was not enhanced.

TLR7 knockout mice = experiment: Serum cytokines after intraperitoneal R-848, TLR7 knockout mice; assay type: in vivo, mouse; conditions: 50 nmol intraperitoneally, ELISA
Protocol: (§7) It was examined in vivo whether TLR7 was involved in a response to R-848. The wild-type mice, MyD88 knockout mice or TLR7 knockout mice were injected intraperitoneally with 50 nmol of R-848, the sera were harvested after a predetermined period of time, and the concentration of IFN-α, TNF-α and IL12p40 in sera was determined by ELISA. […] On the contrary, the increment of these cytokines was not observed in TLR7 knockout mice.

[6] = test system: macrophages derived from TLR7 knockout mice; experiment: Intracellular signalling (NF-κB EMSA, JNK and IRAK in vitro kinase assay) in macrophages, TLR7 knockout; assay type: cell-based, mouse; conditions: TLR7KO macrophages, 100 nM R-848
Protocol: as §4, §5

MyD88 knockout mice = experiment: Serum cytokines after intraperitoneal R-848, MyD88 knockout mice; assay type: in vivo, mouse; conditions: 50 nmol intraperitoneally, ELISA
Protocol: as §7

TLR7 = target: T1, TLR7 (Homo sapiens, UniProt Q9NYK1); experiment: NF-κB reporter gene (luciferase) in HEK293 cells transfected with TLR7 expression plasmids; assay type: cell-based; conditions: HEK293 cells transiently cotransfected with human TLR7 expression plasmids, before and after R-848 stimulation
T1 construct: expressed in transfected cells; host or cells: HEK293
T1 sequence (Q9NYK1 27-1049): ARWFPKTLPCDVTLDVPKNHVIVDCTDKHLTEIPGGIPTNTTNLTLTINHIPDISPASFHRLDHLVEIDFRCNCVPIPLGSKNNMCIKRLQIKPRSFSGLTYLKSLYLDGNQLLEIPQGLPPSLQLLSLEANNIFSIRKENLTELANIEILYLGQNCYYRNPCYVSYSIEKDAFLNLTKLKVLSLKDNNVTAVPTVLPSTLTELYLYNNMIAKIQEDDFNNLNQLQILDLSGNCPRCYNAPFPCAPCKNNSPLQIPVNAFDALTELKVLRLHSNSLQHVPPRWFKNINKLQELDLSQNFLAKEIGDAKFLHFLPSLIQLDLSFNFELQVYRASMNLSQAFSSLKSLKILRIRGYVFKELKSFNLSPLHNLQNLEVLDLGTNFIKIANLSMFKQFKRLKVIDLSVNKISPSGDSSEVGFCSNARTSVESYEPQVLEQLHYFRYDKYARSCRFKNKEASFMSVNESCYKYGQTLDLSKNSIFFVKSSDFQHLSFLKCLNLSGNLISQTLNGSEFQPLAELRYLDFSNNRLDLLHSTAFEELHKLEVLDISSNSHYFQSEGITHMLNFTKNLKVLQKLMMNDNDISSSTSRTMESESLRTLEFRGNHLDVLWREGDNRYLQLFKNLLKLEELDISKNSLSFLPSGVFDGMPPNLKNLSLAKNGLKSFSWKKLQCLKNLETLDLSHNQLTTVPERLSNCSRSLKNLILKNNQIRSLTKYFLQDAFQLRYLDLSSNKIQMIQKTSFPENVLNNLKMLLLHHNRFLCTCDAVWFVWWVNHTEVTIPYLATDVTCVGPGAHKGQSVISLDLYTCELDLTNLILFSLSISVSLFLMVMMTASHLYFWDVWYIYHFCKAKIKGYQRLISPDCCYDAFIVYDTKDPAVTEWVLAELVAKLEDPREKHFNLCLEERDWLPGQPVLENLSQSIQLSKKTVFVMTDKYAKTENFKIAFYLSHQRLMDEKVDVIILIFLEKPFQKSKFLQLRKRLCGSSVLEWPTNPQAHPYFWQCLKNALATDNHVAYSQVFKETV
Protocol: as §5

[7] = test system: splenic cells derived from TLR7 knockout mice (TLR7KO); experiment: Splenic cell proliferation ([3H] thymidine incorporation), TLR7 knockout; assay type: cell-based, mouse; conditions: 5×10^4 cells, cultured 48 h
Protocol: (§8) As activated phenotypes were proliferated and expressed by stimulating B-lymphocytes with imidazoquinoline group compounds, the proliferation of splenic cells was examined (Cell. Immunol. 203, 55-62, 2000; J. Immunol. 165, 5552-5557, 2000). Splenic cells (5×10^4 cells) derived from TLR7 knockout mice (TLR7KO) and wild-type mice were stimulated with R-848 and CpGDNA at a predetermined concentration, cultured for 48 h (cultured by adding [^3H] thymidine for last eight hours), and measured the level of thymidine incorporation using a β scintillation counter. A mean value+/−S.D., obtained from representative experiment among triplicate experiments is shown.

[8] = test system: BMDC derived from TLR7 knockout mice (TLR7KO); experiment: Surface CD40, CD80, CD86 expression on bone marrow dendritic cells (flow cytometry), TLR7 knockout; assay type: cell-based, mouse; conditions: stimulated 24 h
Protocol: as §6

[9] = test system: peritoneal macrophages derived from TLR7 knockout mice (TLR7KO); experiment: Cytokine production by peritoneal macrophages (ELISA), TLR7 knockout; assay type: cell-based, mouse; conditions: 5×10^4 cells, presence or absence of 30 U/ml IFN-γ, 24 h culture
Protocol: as §1, §2
Next, the peritoneal macrophages (5×10^4 cells) derived from TLR7 knockout mice (TLR7KO), TLR9 knockout mice (TLR9KO) and wild-type mice were stimulated with CpGDNA 1668 (phosphorothioate 1688). D19, AAC30, natural 1688 (phosphodiester 1688). genomic DNA derived from Escherichia coli, or genomic DNA derived from Micrococcus deikticus at of a predetermined concentration in the presence (+) or absence (−) of 30 U/ml of IPN-γ, and the concentration of IL-12p40 produced by production of peritoneal macrophages contained in cultured supernatant was measured by ELISA after 24 h of culture. The results are shown in FIG. 6 (in the figure, marks of * show detection limits and below). […]

wild-type mice = experiment: Serum cytokines after intraperitoneal R-848, wild-type mice; assay type: in vivo, mouse; conditions: 50 nmol intraperitoneally, ELISA
Protocol: as §7

genital herpes = conditions: actual treatment; cited from earlier work
[10] = test system: splenic cells derived from wild-type mice; experiment: Splenic cell proliferation ([3H] thymidine incorporation), wild-type; assay type: cell-based, mouse; conditions: 5×10^4 cells, cultured 48 h
Protocol: as §8

CC(C)Cn1cnc2c(N)nc3ccccc3c21 [imiquimod]
treating pudendal wart (condyloma acuminatum) caused by human papilloma virus (human papilloma virus): effective | induction of cytokines such as IFN-α, IL-6 and IL-12 (various types of cells): inducing cytokines such as IFN-α, IL-6 and IL-12 | IL-12 produced by peritoneal macrophages [1]: hardly produced any cytokines | TNF-α produced by peritoneal macrophages [1]: hardly produced any cytokines | antitumor activity (animal model): antitumor activity | antivirus activity (animal model): shows antivirus activity | concentration of IFN-α in serum (BALB/c mice (wild-type)): increased depending on applied dose | concentration of IL-12 in serum (BALB/c mice (wild-type)): increased depending on applied dose | concentration of TNF-α in serum (BALB/c mice (wild-type)): increased depending on applied dose | replication of cytomegalovirus (cytomegalovirus): inhibit the replication | IL-12 produced by peritoneal macrophages [2]: in large amount | TNF-α produced by peritoneal macrophages [2]: in large amount | replication of type 2 herpes simplex virus [3]: inhibit the replication | stimulation of NF-κB and MAP kinase (NF-κB and MAP kinase): stimulates

CCOCc1nc2c(N)nc3ccccc3c2n1CC(C)(C)O [R-848, resiquimod]
activation of c-Jun N terminal kinase (JNK) [4]: induced | enhanced DNA avidity of NF-κB transcription (EMSA) [4]: induced | phosphorylation of IRAK [4]: induced | CD40 expression on cell surface [5]: upregulation | CD80 expression on cell surface [5]: upregulation | CD86 expression on cell surface [5]: upregulation | increment of IFN-α in sera (TLR7 knockout mice): not observed | increment of IL12p40 in sera (TLR7 knockout mice): not observed | increment of TNF-α in sera (TLR7 knockout mice): not observed | activation of c-Jun N terminal kinase (JNK) [6]: completely destructed | enhanced DNA avidity of NF-κB transcription (EMSA) [6]: completely destructed | phosphorylation of IRAK [6]: completely destructed | concentration of IFN-α in sera (MyD88 knockout mice): did not show any reactivity | concentration of IL12p40 in sera (MyD88 knockout mice): did not show any reactivity | concentration of TNF-α in sera (MyD88 knockout mice): did not show any reactivity | NF-κB-dependent promoter (luciferase activity) (TLR7): promoted | proliferation of splenic cells ([3H] thymidine incorporation) [7]: did not show proliferation | IL-12 produced by peritoneal macrophages [1]: hardly produced any cytokines | TNF-α produced by peritoneal macrophages [1]: hardly produced any cytokines | CD40 expression on cell surface [8]: not enhanced | CD80 expression on cell surface [8]: not enhanced | CD86 expression on cell surface [8]: not enhanced | production of IL-6 by peritoneal macrophages [9]: not confirmed | production of IL-12p40 by peritoneal macrophages [9]: not confirmed | production of TNF-α by peritoneal macrophages [9]: not confirmed | concentration of IFN-α in serum (BALB/c mice (wild-type)): increased depending on applied dose | concentration of IL-12 in serum (BALB/c mice (wild-type)): increased depending on applied dose | concentration of TNF-α in serum (BALB/c mice (wild-type)): increased depending on applied dose | concentration of IFN-α in sera (wild-type mice): increased significantly | concentration of IL12p40 in sera (wild-type mice): increased significantly | concentration of TNF-α in sera (wild-type mice): increased significantly | IL-12 produced by peritoneal macrophages [2]: in large amount | TNF-α produced by peritoneal macrophages [2]: in large amount | treating genital herpes (genital herpes): effective | proliferation of splenic cells ([3H] thymidine incorporation) [10]: showed proliferation depending on concentration
